Assay results taken from US7470684B2, “Spiropiperidine derivatives as NK3 antagonists” (Hoffmann-La Roche Inc., priority 2007, dated 2008).
Counter-ions that a name gives are not always drawn.

Biological target: T1, human NK3 receptor (Homo sapiens, UniProt P29371)
T1 construct: expressed in transfected cells; host or cells: HEK293 cells, transiently transfected; membranes
T1 sequence (P29371 1-465): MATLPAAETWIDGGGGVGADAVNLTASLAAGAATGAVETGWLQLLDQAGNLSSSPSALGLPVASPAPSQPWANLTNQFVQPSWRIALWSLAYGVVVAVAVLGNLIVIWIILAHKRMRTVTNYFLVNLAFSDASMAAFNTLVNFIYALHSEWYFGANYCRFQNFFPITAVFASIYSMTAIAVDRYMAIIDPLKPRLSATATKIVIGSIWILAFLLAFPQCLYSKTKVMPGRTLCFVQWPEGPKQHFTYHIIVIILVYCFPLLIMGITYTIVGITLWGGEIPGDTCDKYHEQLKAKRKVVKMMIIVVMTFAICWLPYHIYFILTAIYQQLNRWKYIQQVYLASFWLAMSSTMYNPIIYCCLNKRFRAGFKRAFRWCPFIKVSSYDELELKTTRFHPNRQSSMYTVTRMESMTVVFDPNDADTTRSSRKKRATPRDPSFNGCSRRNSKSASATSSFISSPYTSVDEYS
Test: [3H]SR142801 competition binding assay
Conditions: not given
Procedure: [^3H]SR142801 Competition Binding Assay
hNK3 receptor binding experiment were performed using [^3H]SR142801 (Catalog No. TRK1035, specific activity: 74.0 Ci/mmol, Amersham, GE Healthcare UK limited, Buckinghamshire, UK) and membrane isolated from HEK293 cells transiently expressing recombinant human NK3 receptor. After thawing, the membrane homogenates were centrifuged at 48,000×g for 10 min at 4° C., the pellets were resuspended in the 50 mM Tris-HCl, 4 mM MnCl2, 1 μM phosphoramidon, 0.1% BSA binding buffer at pH 7.4 to a final assay concentration of 5 μg protein/well. For inhibition experiments, membranes were incubated with [^3H]SR142801 at a concentration equal to KD value of radioligand and 10 concentrations of the inhibitory compound (0.0003-10 μM) (in a total reaction volume of 500 μl) for 75 min at room temperature (RT). At the end of the incubation, membranes were filtered onto unitfilter (96-well white microplate with bonded GF/C filter preincubated 1 h in 0.3% PEI+0.3% BSA, Packard BioScience, Meriden, Conn.) with a Filtermate 196 harvester (Packard BioScience) and washed 4 times with ice-cold 50 mM Tris-HCl, pH 7.4 buffer. Nonspecific binding was measured in the presence of 10 μM SB222200 for both radioligands. The radioactivity on the filter was counted (5 min) on a Packard Top-count microplate scintillation counter with quenching correction after addition of 45 μl of microscint 40 (Canberra Packard S.A., Zürich, Switzerland) and shaking for 1 h. Inhibition curves were fitted according to the Hill equation: y=100/(1+(x/IC50)^nH), where nH=slope factor using Excel-fit 4 software (Microsoft). IC50 values were derived from the inhibition curve and the affinity constant (Ki) values were calculated using the Cheng-Prussoff equation Ki=IC50/(1+[L]/KD) where [L] is the concentration of radioligand and KD is its dissociation constant at the receptor, derived from the saturation isotherm. All experiments were performed in duplicate and the mean±standard error (SEM) of the individual Ki values was calculated.

SMILES | Ki [nM]
CCCCN(C)C(=O)C(CCN1CCC2(CC1)OC(=O)Nc1ccc(F)cc12)c1ccc(Cl)c(Cl)c1 (stereo not shown) [Example 14, N-butyl-2-(3,4-dichlorophenyl)-4-(6-fluoro-2-oxo-1,2-dihydro-1′H-spiro[3,1-benzoxazine-4,4′-piperidin]-1′-yl)-N-methylbutanamide] | 90.8
CN1C(=O)OC2(CCN(CCC(C(=O)N3CCc4ccc(F)cc4C3)c3ccc(Cl)c(Cl)c3)CC2)c2cc(F)ccc21 (stereo not shown) [Example 38, 1′-[3-(3,4-dichlorophenyl)-4-(7-fluoro-3,4-dihydroisoquinolin-2(1H)-yl)-4-oxobutyl]-6-fluoro-1-methylspiro[3,1-benzoxazine-4,4′-piperidin]-2(1H)-one] | 48.7
CN(Cc1ccc(Cl)cc1)C(=O)C(CCN1CCC2(CC1)OC(=O)N(C)c1ccc(F)cc12)c1ccc(Cl)c(Cl)c1 (stereo not shown) [Example 42, N-(4-chlorobenzyl)-2-(3,4-dichlorophenyl)-4-(6-fluoro-1-methyl-2-oxo-1,2-dihydro-1′H-spiro[3,1-benzoxazine-4,4′-piperidin]-1′-yl)-N-methylbutanamide] | 0.8

Same assay, conditions: [3H]SR142801 displacement, membranes of HEK293 cells transiently expressing recombinant human NK3 receptor; read-out: hNK3 Ki

SMILES | Ki [nM]
Cc1ccc(CNC(=O)C(CCN2CCC3(CC2)OC(=O)Nc2ccc(F)cc23)c2ccc(Cl)c(Cl)c2)o1 (stereo not shown) [Example 9, 2-(3,4-dichlorophenyl)-4-(6-fluoro-2-oxo-1,2-dihydro-1′H-spiro[3,1-benzoxazine-4,4′-piperidin]-1′-yl)-N-[(5-methyl-2-furyl)methyl]butanamide] | 91.4

Same assay, conditions: hNK3 Ki, [3H]SR142801 displacement, membranes of HEK293 cells transiently expressing recombinant human NK3 receptor

SMILES | Ki [nM]
CN(Cc1ccccc1)C(=O)C(CCN1CCC2(CC1)OC(=O)Nc1ccc(F)cc12)c1ccc(Cl)c(Cl)c1 (stereo not shown) [Example 1, N-benzyl-2-(3,4-dichlorophenyl)-4-(6-fluoro-2-oxo-1,2-dihydro-1′H-spiro[3,1-benzoxazine-4,4′-piperidin]-1′-yl)-N-methylbutanamide hydrochloride] | 11.2
CCN(Cc1ccccc1)C(=O)C(CCN1CCC2(CC1)OC(=O)Nc1ccc(F)cc12)c1ccc(Cl)c(Cl)c1 (stereo not shown) [Example 6, N-benzyl-2-(3,4-dichlorophenyl)-N-ethyl-4-(6-fluoro-2-oxo-1,2-dihydro-1′H-spiro[3,1-benzoxazine-4,4′-piperidin]-1′-yl)butanamide] | 62.8
O=C1Nc2ccc(F)cc2C2(CCN(CCC(C(=O)NCc3ccc(Cl)cc3)c3ccc(Cl)c(Cl)c3)CC2)O1 (stereo not shown) [Example 8, N-(4-chlorobenzyl)-2-(3,4-dichlorophenyl)-4-(6-fluoro-2-oxo-1,2-dihydro-1′H-spiro[3,1-benzoxazine-4,4′-piperidin]-1′-yl)butanamide] | 17
CCN(Cc1ccccc1F)C(=O)C(CCN1CCC2(CC1)OC(=O)Nc1ccc(F)cc12)c1ccc(Cl)c(Cl)c1 (stereo not shown) [Example 12, 2-(3,4-dichlorophenyl)-N-ethyl-N-(2-fluorobenzyl)-4-(6-fluoro-2-oxo-1,2-dihydro-1′H-spiro[3,1-benzoxazine-4,4′-piperidin]-1′-yl)butanamide] | 31.2
CN(Cc1ccc(Cl)cc1)C(=O)C(CCN1CCC2(CC1)OC(=O)Nc1ccc(F)cc12)c1ccc(Cl)c(Cl)c1 (stereo not shown) [Example 15, N-(4-chlorobenzyl)-2-(3,4-dichlorophenyl)-4-(6-fluoro-2-oxo-1,2-dihydro-1′H-spiro[3,1-benzoxazine-4,4′-piperidin]-1′-yl)-N-methylbutanamide] | 3.7
CN(Cc1ccccc1Cl)C(=O)C(CCN1CCC2(CC1)OC(=O)Nc1ccc(F)cc12)c1ccc(Cl)c(Cl)c1 (stereo not shown) [Example 17, N-(2-chlorobenzyl)-2-(3,4-dichlorophenyl)-4-(6-fluoro-2-oxo-1,2-dihydro-1′H-spiro[3,1-benzoxazine-4,4′-piperidin]-1′-yl)-N-methylbutanamide] | 6.7
CCN(Cc1ccc(C)cc1)C(=O)C(CCN1CCC2(CC1)OC(=O)Nc1ccc(F)cc12)c1ccc(Cl)c(Cl)c1 (stereo not shown) [Example 18, 2-(3,4-dichlorophenyl)-N-ethyl-4-(6-fluoro-2-oxo-1,2-dihydro-1′H-spiro[3,1-benzoxazine-4,4′-piperidin]-1′-yl)-N-(4-methylbenzyl)butnamide] | 15.7
CN(Cc1cccc(Cl)c1)C(=O)C(CCN1CCC2(CC1)OC(=O)Nc1ccc(F)cc12)c1ccc(Cl)c(Cl)c1 (stereo not shown) [Example 19, N-(3-chlorobenzyl)-2-(3,4-dichlorophenyl)-4-(6-fluoro-2-oxo-1,2-dihydro-1′H-spiro[3,1-benzoxazine-4,4′-piperidin]-1′-yl)-N-methylbutanamide] | 5.2
CN(Cc1cccc(Cl)c1)C(=O)C(CCN1CCC2(CC1)OC(=O)Nc1ccc(F)cc12)c1ccc(F)cc1 (stereo not shown) [Example 25, N-(3-chlorobenzyl)-4-(6-fluoro-2-oxo-1,2-dihydro-1′H-spiro[3,1-benzoxazine-4,4′-piperidin]-1′-yl)-2-(4-fluorophenyl)-N-methylbutanamide] | 59.4
CN(Cc1ccc(Cl)cc1)C(=O)C(CCN1CCC2(CC1)OC(=O)Nc1ccc(F)cc12)c1ccc(F)cc1 (stereo not shown) [Example 26, N-(4-chlorobenzyl)-4-(6-fluoro-2-oxo-1,2-dihydro-1′H-spiro[3,1-benzoxazine-4,4′-piperidin]-1′-yl)-2-(4-fluorophenyl)-N-methylbutanamide] | 38.3
CN(Cc1ccccc1Cl)C(=O)C(CCN1CCC2(CC1)OC(=O)Nc1ccc(F)cc12)c1ccc(F)cc1 (stereo not shown) [Example 27, N-(2-chlorobenzyl)-4-(6-fluoro-2-oxo-1,2-dihydro-1′H-spiro[3,1-benzoxazine-4,4′-piperidin]-1′-yl)-2-(4-fluorophenyl)-N-methylbutanamide] | 38.5
CCN(Cc1ccccc1)C(=O)C(CCN1CCC2(CC1)OC(=O)N(C)c1ccc(F)cc12)c1ccc(Cl)c(Cl)c1 (stereo not shown) [Example 29, N-benzyl-2-(3,4-dichlorophenyl)-N-ethyl-4-(6-fluoro-1-methyl-2-oxo-1,2-dihydro-1′H-spiro[3,1-benzoxazine-4,4′-piperidin]-1′-yl)-butanamide] | 6.7
Cc1ccc(CNC(=O)C(CCN2CCC3(CC2)OC(=O)N(C)c2ccc(F)cc23)c2ccc(Cl)c(Cl)c2)cc1 (stereo not shown) [Example 31, 2-(3,4-dichlorophenyl)-4-(6-fluoro-1-methyl-2-oxo-1,2-dihydro-1′H-spiro[3,1-benzoxazine-4,4′-piperidin]-1′-yl)-N-(4-methylbenzyl)butanamide] | 5.8
CN1C(=O)OC2(CCN(CCC(C(=O)NCc3ccccc3)c3ccc(Cl)c(Cl)c3)CC2)c2cc(F)ccc21 (stereo not shown) [Example 32, N-benzyl-2-(3,4-dichlorophenyl)-4-(6-fluoro-1-methyl-2-oxo-1,2-dihydro-1′H-spiro[3,1-benzoxazine-4,4′-piperidin]-1′-yl)-butanamide] | 3.9
CN1C(=O)OC2(CCN(CCC(C(=O)NCc3ccc(S(C)(=O)=O)cc3)c3ccc(Cl)c(Cl)c3)CC2)c2cc(F)ccc21 (stereo not shown) [Example 33, 2-(3,4-dichlorophenyl)-4-(6-fluoro-1-methyl-2-oxo-1,2-dihydro-1′H-spiro[3,1-benzoxazine-4,4′-piperidin]-1′-yl)-N-[4-(methylsulfonyl)benzyl]butanamide] | 54.7
CN1C(=O)OC2(CCN(CCC(C(=O)NCc3ccc(Cl)cc3)c3ccc(Cl)c(Cl)c3)CC2)c2cc(F)ccc21 (stereo not shown) [Example 34, N-(4-chlorobenzyl)-2-(3,4-dichlorophenyl)-4-(6-fluoro-1-methyl-2-oxo-1,2-dihydro-1′H-spiro[3,1-benzoxazine-4,4′piperidin]-1′-yl)-butanamide] | 3.3
CCN(Cc1ccc(C)cc1)C(=O)C(CCN1CCC2(CC1)OC(=O)N(C)c1ccc(F)cc12)c1ccc(Cl)c(Cl)c1 (stereo not shown) [Example 39, 2-(3,4-dichlorphenyl)-N-ethyl-4-(6-fluoro-1-methyl-2-oxo-1,2-dihydro-1′H-spiro[3,1-benzoxazine-4,4′-piperidin]-1′-yl)-N-(4-methylbenzyl)butanamide] | 4.2
CN(Cc1cccc(Cl)c1)C(=O)C(CCN1CCC2(CC1)OC(=O)N(C)c1ccc(F)cc12)c1ccc(Cl)c(Cl)c1 (stereo not shown) [Example 40, N-(3-chlorobenzyl)-2-(3,4-dichlorophenyl)-4-(6-fluoro-1-methyl-2-oxo-1,2-dihydro-1′H-spiro[3,1-benzoxazine-4,4′-piperidin]-1′-yl)-N-methylbutanamide] | 1.1
